According to US8765744B2, “Azaspirohexanones” (Boehringer Ingelheim International GmbH, priority 2010, dated 2014):

Biological target: 11β-HSD1 (Homo sapiens (Human), UniProt P28845)
Conditions: read-out: Inhibitory activity on 11β-HSD 1, IC50; human liver microsomes; 1 hour at 37° C.; NADPH 200 μM, cortisone 80 nM; HTRF cortisol detection
Method: The biological properties (inhibitory activity on 11β-hydroxysteroid dehydrogenase 1) of the new compounds may be investigated as follows:
Briefly, compounds are incubated for 1 hour at 37° C. in Tris buffer (20 mM tris, 5 mM EDTA, pH 6.0) containing NADPH (200 μM) and cortisone (80 nM). Cortisol generated in the reaction is then detected with a competitive immunoassay, involving two HTRF conjugates: cortisol linked to XL665 and anti-cortisol antibody labeled with Europium cryptate. The incubation period for detection reaction is typically 2 hours. […] The ratio of the two emission signals is then calculated (Em665*10000/Em615). […] Each assay also contains a calibration curve with cortisol to transform the fluorescent data into cortisol concentrations. Percent inhibition (% CTL) of each compound is determined relative to the carbenoxolone signal and IC50 curves are generated.

Chain of 11β-HSD1 (P28845 whole entry): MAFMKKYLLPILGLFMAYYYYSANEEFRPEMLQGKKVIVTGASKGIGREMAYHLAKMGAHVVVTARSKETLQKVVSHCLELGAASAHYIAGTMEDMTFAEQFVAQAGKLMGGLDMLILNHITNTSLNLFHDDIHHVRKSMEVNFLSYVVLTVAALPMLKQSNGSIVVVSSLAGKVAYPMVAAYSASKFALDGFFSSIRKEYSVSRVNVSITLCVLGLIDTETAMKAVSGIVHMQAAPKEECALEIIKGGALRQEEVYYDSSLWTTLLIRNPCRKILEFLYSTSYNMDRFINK

SMILES	IC50 [µM]
C[C@@H](c1ccc(-c2ccc(C(=O)N(C)C)nc2)cc1)N1CCC2(CCC3(CC2)OCC(C)(C)CO3)OC1=O [Example 17, 5-{4-[(S)-1-(12,12-Dimethyl-2-oxo-1,10,14-trioxa-3-aza-dispiro[5.2.5.2]hexadec-3-yl)-ethyl]-phenyl}-pyridine-2-carboxylic acid dimethylamide]	> 10
C[C@@H](c1ccc(-c2ccn(C)c(=O)c2)cc1)N1CCC2(CCC3(CC2)OCC(C)(C)CO3)OC1=O [Example 16, 12,12-Dimethyl-3-{(S)-1-[4-(1-methyl-2-oxo-1,2-dihydro-pyridin-4-yl)-phenyl]-ethyl}-1,10,14-trioxa-3-aza-dispiro[5.2.5.2]hexadecan-2-one]	> 10
